Results published in US10689376B2, “Substituted-3H-imidazo [4,5-c] pyridine and 1H-pyrrolo[2,3-c]pyridine series of novel ectonucleotide pyrophosphatase/phosphodiesterase-1 (ENPP1) and stimulator for interferon genes (STING) modulators as cancer immunotherapeutics” (Stingray Therapeutics, Inc., priority 2017, dated 2020).

Key:
[1] = target: T1, Recombinant Human ENPP-1 Protein (Homo sapiens (Human), UniProt P22413); test: ENPP1 Thermal Shift Assay; format: binding
Method: 3. ENPP1 Thermal Shift Assay Materials: Recombinant Human ENPP-1 Protein (R&D Cat #6136-EN-010) Assay Buffer (1 mM CaCl2, 0.2 mM ZnCl2, 50 mM Tris, pH 9.0) 5000× SYPRO Orange (ThermoFisher cat # S6651) 384-well PCR Plates Methods: Each drug was prepared as a 10× solution in the assay buffer and SYPRO Orange was diluted to 10× concentration in water. Wells were set up in duplicate in a 384-well PCR plate as follows: 14 μL assay buffer, 2 μL ENPP1 Inhibitor or DMSO, 2 μL (0.5 μg) ENPP1 protein. Each well was mixed and incubated on ice for 5 minutes. Post incubation, 2 μL of SYPRO Orange was mixed into each well and followed by a gentle centrifugation. The protein melt reaction was run using ViiA7 software with temperatures beginning at 25° C. and increasing by 0.05° C./s to the maximum temperature of 99° C.

[2] = target: Recombinant Human ENPP-2/Autotaxin Protein (Homo sapiens (Human), UniProt Q13822); test: ENPP2 Inhibition Assay; format: biochemical; details: result in words
Method: 2. ENPP2 Inhibition Assay
Assay Buffer: 10 mM CaCl2, 5 mM MgCl2, 50 mM Tris, 0.02% Brij-35, pH 8.5
Substrate: 2 mM Bis(p-Nitrophenyl) Phosphate Sodium Salt (Sigma Cat # N3002)
Enzyme: 0.2 ng/μL Recombinant Human ENPP-2/Autotaxin Protein (R&D Cat #5255-EN)
96-well clear assay plates
(§1) An eight point serial dilution of drugs was prepared in 10× in assay buffer with the final assay concentrations starting at 10 μM, 3 μM, 1 μM, 0.3 μM . . . 0 μM. A dilution of DMSO was included as a control. The assay plate was set up as follows with each well in duplicate: 15 μL assay buffer+10 μL, ENPP1 inhibitor or DMSO+50 μL Substrate+25 μL Enzyme. Both the enzyme and substrate were added to opposite sides of the well to ensure that there was no interaction until all wells had both components. The plate was then centrifuged gently for 10 seconds, followed by an incubation at 37° C. for 45 minutes. The reaction was quantified by measuring absorbance at 405 nm using the Envision.
(§2) IC50 values are determined using GraphPad Prism 5 software. The data were entered as an X-Y plot into the software as percent inhibition for each concentration of the drug. The concentration values of the drug were log transformed and the nonlinear regression was carried out using the “sigmoidal dose-response (variable slope)” option within the GraphPad software to model the data and calculate IC50 values. The IC50 values reported are the concentration of drug at which 50% inhibition was reached.

[3] = target: T1, Recombinant Human ENPP-1 Protein; test: ENPP1 Inhibition Assay; format: biochemical; details: for inhibiting the activity of ENPP1 (FIG. 1): result in words; for IC50: substrate thymidine 5′-monophosphate p-nitrophenol ester, absorbance at 405 nm
Method: 1. ENPP1 Inhibition Assay
Materials: • Assay Buffer: 1 mM CaCl2, 0.2 mM ZnCl2, 50 mM Tris, pH 9.0 • Substrate: 8 mM Thymidine 5′-monophosphate p-nitrophenol ester sodium salt (Sigma Cat # T4510) • Enzyme: 5 ng/μL Recombinant Human ENPP-1 Protein (R&D Cat #6136-EN-010) DMSO • 96-well clear assay plates
as §1, with “81” for “15”, “μL” for “μL,”, “DMSO+5” for “DMSO+50”, “Substrate+4” for “Substrate+25”
as §2

[4] = system: Saos-2 Cells; test: ENPP1 Mineralization Assay; format: cell-based; design: key to ENPP1 Mineral assay (50% inhibition at 50 μM): +: active at 50 μM concentration; NA: Not Active; details: for ENPP1 Mineral assay (50% inhibition at 50 μM): Alizarin Red; for inhibiting ENPP1 ability to produce mineralized nodules (FIG. 4): result in words
Method: 4. ENPP1 Mineralization Assay
Saos-2 Cells (ATCC CAT # HTB-85)
24-well Tissue Culture Plate
Ascorbic Acid, 5 mg/mL (100×)
β-Glycerophosphate, 1M (100×)
Phosphate Buffered Saline
Alizarin Red, 40 mM pH 4.2
Dye Extraction Reagent, 10% Methanol+10% Acetic Acid
Saos-2 cells were plated at a density of 1.5×10^6 cells/well and allowed to grow to 100% confluency over the following 1-2 days. Once completely confluent, the media was replaced with fresh media supplemented with 1× ascorbic acid, 1× β-glycerophosphate, and varying concentrations of ENPP1 inhibitor (if applicable). The addition of the mineralization components was considered Day 1, On Day 3, the media was gently aspirated with no wash followed by the addition of fresh media, mineralization components, and ENPP1 inhibitor (if applicable). On day 5, the media was gently aspirated and the cells were washed twice with PBS. The cells were then fixed with ice cold 70% ethanol for 1 hour at 4° C. Cells were washed once with PBS and stained with Alizarin Red for 30 minutes at room temperature with gentle rotation. Stained cells were washed three times with water for 10 minutes at room temperature with gentle rotation. After imaging cells, dye extraction reagent was added to each well and incubated for 30 minutes at room temperature. Alizarin red was quantified by measuring absorbance at a wavelength of 405 nm using the Envision.

T1 sequence (P22413 whole entry): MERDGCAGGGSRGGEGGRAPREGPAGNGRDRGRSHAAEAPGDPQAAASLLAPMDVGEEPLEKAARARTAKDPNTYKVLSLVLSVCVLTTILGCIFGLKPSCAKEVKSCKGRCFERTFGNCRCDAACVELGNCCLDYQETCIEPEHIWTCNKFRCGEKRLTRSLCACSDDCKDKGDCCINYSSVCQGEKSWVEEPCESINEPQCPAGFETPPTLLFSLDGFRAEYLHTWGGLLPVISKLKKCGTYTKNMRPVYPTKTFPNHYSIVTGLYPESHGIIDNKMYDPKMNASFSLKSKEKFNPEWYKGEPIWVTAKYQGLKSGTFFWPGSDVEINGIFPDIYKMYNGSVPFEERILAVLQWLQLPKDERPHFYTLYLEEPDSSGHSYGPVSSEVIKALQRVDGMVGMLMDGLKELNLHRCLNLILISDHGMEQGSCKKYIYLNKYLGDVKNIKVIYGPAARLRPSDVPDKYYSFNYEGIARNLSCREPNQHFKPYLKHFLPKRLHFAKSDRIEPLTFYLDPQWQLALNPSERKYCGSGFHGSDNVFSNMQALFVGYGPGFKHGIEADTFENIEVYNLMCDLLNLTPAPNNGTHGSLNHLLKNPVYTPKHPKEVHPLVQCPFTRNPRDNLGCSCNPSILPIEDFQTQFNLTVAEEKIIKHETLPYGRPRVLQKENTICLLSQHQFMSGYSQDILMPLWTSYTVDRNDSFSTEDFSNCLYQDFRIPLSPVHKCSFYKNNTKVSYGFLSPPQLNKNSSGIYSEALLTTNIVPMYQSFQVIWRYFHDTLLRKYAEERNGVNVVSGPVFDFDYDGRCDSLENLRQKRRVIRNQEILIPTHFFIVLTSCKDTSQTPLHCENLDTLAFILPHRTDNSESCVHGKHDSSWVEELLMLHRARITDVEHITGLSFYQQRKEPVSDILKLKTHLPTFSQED

| Tm (midpoint of the protein unfolding transition) of ENPP1 in the presence of compound ([1]; Tm of ENPP1 alone 64.2° C.) [°C] | IC50 [3] [nM] | Structure (SMILES) | stability of recombinant ENPP1 protein (FIG. 3) ([1]; result in words) | inhibiting the activity of ENPP2 (FIGS. 2A and 2B) [2] | selectivity ENPP1 versus ENPP2 [2] | inhibiting the activity of ENPP1 (FIG. 1) [3] | ENPP1 Mineral assay (50% inhibition at 50 μM) [4] | inhibiting ENPP1 ability to produce mineralized nodules (FIG. 4) [4] |
| --- | --- | --- | --- | --- | --- | --- | --- | --- |
| 67.84 | 86 | COc1ccc(NC(=O)CSc2nc3cc(Cl)ncc3[nH]2)cc1O [Compound 21, 2-((6-chloro-3H-imidazo[4,5-c]pyridin-2-yl)thio)-N-(3-hydroxy-4-methoxyphenyl)acetamide] | effective in increasing the stability of recombinant ENPP1 protein | ineffective in inhibiting the activity of ENPP2 | selective at inhibiting ENPP1 but not ENPP2 | effective in inhibiting the activity of ENPP1 | + | effective in inhibiting ENPP1 ability to produce mineralized nodules |
|  | 1160 | COc1cc(NC(=O)CSc2nc3cc(Cl)ncc3[nH]2)ccc1O [Compound 22, 2-((6-chloro-3H-imidazo[4,5-c]pyridin-2-yl)thio)-N-(4-hydroxy-3-methoxyphenyl)acetamide] |  |  |  |  | + |  |
|  | 181 | COc1ccc(NC(=O)CSc2nc3cnc(C(F)(F)F)cc3[nH]2)cc1O [Compound 31, N-(3-hydroxy-4-methoxyphenyl)-2-((6-(trifluoromethyl)-1H-imidazo[4,5-c]pyridin-2-yl)thio)acetamide] |  |  |  |  | + |  |
|  | 170 | O=C(CSc1nc2cnc(Cl)cc2[nH]1)Nc1ccc(F)c(O)c1 [Compound 37, 2-((6-chloro-1H-imidazo[4,5-c]pyridin-2-yl)thio)-N-(4-fluoro-3-hydroxyphenyl)acetamide] |  |  |  |  | + |  |
|  | 487 | COc1ccc(NC(=O)CSc2nc3cnc(C(F)(F)F)cc3[nH]2)cc1F [Compound 38, N-(3-fluoro-4-methoxyphenyl)-2-((6-(trifluoromethyl)-1H-imidazo[4,5-c]pyridin-2-yl)thio)acetamide] |  |  |  |  | + |  |
|  | 651 | O=C(CSc1nc2cnc(C(F)(F)F)cc2[nH]1)Nc1ccc(F)c(O)c1 [Compound 45, N-(4-fluoro-3-hydroxyphenyl)-2-((6-(trifluoromethyl)-1H-imidazo[4,5-c]pyridin-2-yl)thio)acetamide] |  |  |  |  | + |  |
|  | 114 | COc1ccc(NC(=O)CSc2nc3cc(C#N)ncc3[nH]2)cc1OC [Compound 68, 2-((6-Cyano-3H-imidazo[4,5-c]pyridin-2-yl)thio)-N-(3,4-dimethoxyphenyl)acetamide] |  |  |  | effective in inhibiting the activity of ENPP1 | + | effective in inhibiting ENPP1 ability to produce mineralized nodules |
|  | 79 | COc1ccc(NC(=O)CSc2nc3c(C)c(C#N)ncc3[nH]2)cc1O [Compound 78, 2-((6-Cyano-7-methyl-3H-imidazo[4,5-c]pyridin-2-yl)thio)-N-(3-hydroxy-4-methoxyphenyl)acetamide] |  | ineffective in inhibiting the activity of ENPP2 | selective at inhibiting ENPP1 but not ENPP2 | effective in inhibiting the activity of ENPP1 | + |  |
